Source: US9295673B2, “Combination of mTOR inhibitors and P13-kinase inhibitors, and uses thereof” (Intellikine LLC, priority 2011, dated 2016)

Biological target: PI3K β (Homo sapiens, UniProt P42338)
Assay: PI 3-Kinase (human) HTRF assay, PI3K β
Details: read-out: PI3K β IC50; Table 4

Sequence of PI3K β (P42338 whole entry): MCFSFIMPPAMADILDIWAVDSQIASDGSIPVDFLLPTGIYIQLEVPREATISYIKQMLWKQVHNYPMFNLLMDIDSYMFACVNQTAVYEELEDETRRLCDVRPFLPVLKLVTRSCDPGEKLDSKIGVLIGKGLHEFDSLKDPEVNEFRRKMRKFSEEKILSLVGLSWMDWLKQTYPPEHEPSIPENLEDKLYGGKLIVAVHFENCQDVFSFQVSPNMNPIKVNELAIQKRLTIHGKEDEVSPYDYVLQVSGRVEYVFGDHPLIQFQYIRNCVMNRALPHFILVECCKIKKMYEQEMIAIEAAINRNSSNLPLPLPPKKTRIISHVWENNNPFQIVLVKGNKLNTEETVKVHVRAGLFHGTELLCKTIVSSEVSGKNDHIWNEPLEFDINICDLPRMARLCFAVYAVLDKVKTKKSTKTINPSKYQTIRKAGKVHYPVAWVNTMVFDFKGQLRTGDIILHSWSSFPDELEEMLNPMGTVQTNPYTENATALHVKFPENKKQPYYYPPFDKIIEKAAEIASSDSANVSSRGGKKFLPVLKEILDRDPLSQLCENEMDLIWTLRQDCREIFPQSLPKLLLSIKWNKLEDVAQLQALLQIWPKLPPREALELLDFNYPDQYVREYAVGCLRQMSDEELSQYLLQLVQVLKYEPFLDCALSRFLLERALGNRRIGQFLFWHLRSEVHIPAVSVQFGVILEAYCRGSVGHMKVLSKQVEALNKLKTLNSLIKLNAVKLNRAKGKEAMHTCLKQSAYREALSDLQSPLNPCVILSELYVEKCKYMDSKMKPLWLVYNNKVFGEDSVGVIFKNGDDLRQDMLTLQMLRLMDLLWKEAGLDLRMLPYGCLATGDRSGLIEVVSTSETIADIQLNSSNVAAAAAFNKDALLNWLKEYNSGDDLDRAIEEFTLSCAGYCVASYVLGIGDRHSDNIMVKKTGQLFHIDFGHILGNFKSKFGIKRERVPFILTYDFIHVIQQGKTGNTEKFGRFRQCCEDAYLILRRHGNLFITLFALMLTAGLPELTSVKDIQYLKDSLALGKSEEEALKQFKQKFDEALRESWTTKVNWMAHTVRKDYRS
Sequence of PI3K β (P27986 whole entry partner): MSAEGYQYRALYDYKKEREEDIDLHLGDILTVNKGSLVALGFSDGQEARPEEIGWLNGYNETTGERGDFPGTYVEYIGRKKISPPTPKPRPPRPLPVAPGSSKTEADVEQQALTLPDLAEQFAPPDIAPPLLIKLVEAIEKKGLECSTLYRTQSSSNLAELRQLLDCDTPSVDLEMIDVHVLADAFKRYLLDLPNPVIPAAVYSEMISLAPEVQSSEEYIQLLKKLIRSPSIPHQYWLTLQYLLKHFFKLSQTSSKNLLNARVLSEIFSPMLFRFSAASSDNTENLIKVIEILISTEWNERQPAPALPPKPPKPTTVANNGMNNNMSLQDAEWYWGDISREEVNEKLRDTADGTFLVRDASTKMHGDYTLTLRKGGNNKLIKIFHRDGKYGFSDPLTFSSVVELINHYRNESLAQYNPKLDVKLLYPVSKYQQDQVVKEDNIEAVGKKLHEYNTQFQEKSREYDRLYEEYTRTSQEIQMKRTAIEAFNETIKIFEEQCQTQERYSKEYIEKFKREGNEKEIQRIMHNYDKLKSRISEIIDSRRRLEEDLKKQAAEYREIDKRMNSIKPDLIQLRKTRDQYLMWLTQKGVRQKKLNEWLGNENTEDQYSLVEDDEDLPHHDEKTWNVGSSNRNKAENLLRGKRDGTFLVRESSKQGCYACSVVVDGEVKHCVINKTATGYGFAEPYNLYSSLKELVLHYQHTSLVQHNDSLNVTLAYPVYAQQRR

Row | IC50 [µM] | Structure (SMILES)
1 | < 10 | Nc1nc2cc(-c3ccc4ncc(N5CCC(O)CC5)nc4n3)ccc2o1 [Compound 596]
2 | < 10 | C[C@H]1COCCN1c1cnc2ccc(-c3ccc4oc(N)nc4c3)nc2n1 [Compound 566]
3 | < 10 | C[C@@H]1COCCN1c1cnc2ccc(-c3ccc4oc(N)nc4c3)nc2n1 [Compound 565]
4 | < 10 | CCOC(=O)N1CC=C(c2cnc3ccc(-c4ccc5oc(N)nc5c4)nc3n2)CC1 [Compound 560]
5 | < 10 | Nc1nc2cc(-c3ccc4ncc(-c5cccnc5)nc4n3)ccc2o1 [Compound 554]
6 | < 10 | Cc1nccn1C1CN(c2cnc3ccc(-c4ccc5oc(N)nc5c4)nc3c2)C1 [Compound 614]
7 | < 10 | CN1CCN(C2CN(c3cnc4ccc(-c5ccc6oc(N)nc6c5)nc4n3)C2)CC1 [Compound 622]
8 | < 10 | Nc1nc2cc(-c3ccc4ncc(N5CC(N6CCN(CCO)CC6)C5)cc4n3)ccc2o1 [Compound 616]
9 | < 10 | C[C@@H]1COCCN1C1CN(c2cnc3ccc(-c4ccc5oc(N)nc5c4)nc3c2)C1 [Compound 617]
10 | < 10 | CCOC(=O)N1CCN(c2cnc3ccc(-c4ccc5oc(N)nc5c4)nc3c2)CC1 [Compound 587]
11 | < 10 | Nc1nc2cc(-c3ccc4ncc(N5CC(N6CCN(CC7CC7)CC6)C5)nc4n3)ccc2o1 [Compound 586]
12 | < 10 | CC1(C)CN(C2CN(c3cnc4ccc(-c5ccc6oc(N)nc6c5)nc4n3)C2)CCN1 [Compound 603]
13 | < 10 | Nc1nc2cc(-c3ccc4ncc(N5CCC(O)CC5)cc4n3)ccc2o1 [Compound 613]
14 | < 10 | Nc1nc2cc(-c3ccc4ncc(C5=CCOCC5)nc4n3)ccc2o1 [Compound 562]
15 | < 10 | Nc1nc2cc(-c3ccc4ncc(N5CC(N6CCN(CCO)CC6)C5)nc4n3)ccc2o1 [Compound 597]
16 | < 10 | Nc1nc2cc(-c3ccc4ncc(N5CC(N6CCN(C7CC7)CC6)C5)cc4n3)ccc2o1 [Compound 621]
17 | < 10 | NCC(=O)N1CCN(c2cnc3ccc(-c4ccc5oc(N)nc5c4)nc3n2)CC1 [Compound 584]
18 | < 10 | Nc1nc2cc(-c3ccc4ncc(N5CC(N6CCN(CC7CC7)CC6)C5)cc4n3)ccc2o1 [Compound 611]
19 | < 10 | CCN1CCN(C2CN(c3cnc4ccc(-c5ccc6oc(N)nc6c5)nc4n3)C2)CC1 [Compound 627]
20 | < 10 | Cc1nccn1C1CN(c2cnc3ccc(-c4ccc5oc(N)nc5c4)nc3n2)C1 [Compound 601]
21 | < 10 | CN1CCN(C2CN(c3cnc4ccc(-c5ccc6oc(N)nc6c5)nc4c3)C2)CC1=O [Compound 615]
22 | < 10 | Nc1nc2cc(-c3ccc4ncc(-c5cccnc5)cc4n3)ccc2o1 [Compound 567]
23 | < 10 | C[C@H]1CN(C2CN(c3cnc4ccc(-c5ccc6oc(N)nc6c5)nc4c3)C2)CCN1 [Compound 605]
24 | < 10 | CC1(C)CN(C2CN(c3cnc4ccc(-c5ccc6oc(N)nc6c5)nc4c3)C2)CCN1 [Compound 609]

Row | Structure (SMILES) | IC50 [µM]
25 | CC(C)(N)C(=O)N1CCN(c2cnc3ccc(-c4ccc5oc(N)nc5c4)nc3n2)CC1 [Compound 591] | < 10
26 | Nc1nc2cc(-c3ccc4ncc(N5CC(N6CCOCC6)C5)cc4n3)ccc2o1 [Compound 604] | < 10
27 | Nc1nc2cc(-c3ccc4ncc(N5CC(N6CCN(C7CC7)CC6)C5)nc4n3)ccc2o1 [Compound 620] | < 10
28 | C[C@@H](N)C(=O)N1CCN(c2cnc3ccc(-c4ccc5oc(N)nc5c4)nc3n2)CC1 [Compound 582] | < 10

Biological target: PI3K δ (Homo sapiens, UniProt O00329)
Sequence (O00329 whole entry): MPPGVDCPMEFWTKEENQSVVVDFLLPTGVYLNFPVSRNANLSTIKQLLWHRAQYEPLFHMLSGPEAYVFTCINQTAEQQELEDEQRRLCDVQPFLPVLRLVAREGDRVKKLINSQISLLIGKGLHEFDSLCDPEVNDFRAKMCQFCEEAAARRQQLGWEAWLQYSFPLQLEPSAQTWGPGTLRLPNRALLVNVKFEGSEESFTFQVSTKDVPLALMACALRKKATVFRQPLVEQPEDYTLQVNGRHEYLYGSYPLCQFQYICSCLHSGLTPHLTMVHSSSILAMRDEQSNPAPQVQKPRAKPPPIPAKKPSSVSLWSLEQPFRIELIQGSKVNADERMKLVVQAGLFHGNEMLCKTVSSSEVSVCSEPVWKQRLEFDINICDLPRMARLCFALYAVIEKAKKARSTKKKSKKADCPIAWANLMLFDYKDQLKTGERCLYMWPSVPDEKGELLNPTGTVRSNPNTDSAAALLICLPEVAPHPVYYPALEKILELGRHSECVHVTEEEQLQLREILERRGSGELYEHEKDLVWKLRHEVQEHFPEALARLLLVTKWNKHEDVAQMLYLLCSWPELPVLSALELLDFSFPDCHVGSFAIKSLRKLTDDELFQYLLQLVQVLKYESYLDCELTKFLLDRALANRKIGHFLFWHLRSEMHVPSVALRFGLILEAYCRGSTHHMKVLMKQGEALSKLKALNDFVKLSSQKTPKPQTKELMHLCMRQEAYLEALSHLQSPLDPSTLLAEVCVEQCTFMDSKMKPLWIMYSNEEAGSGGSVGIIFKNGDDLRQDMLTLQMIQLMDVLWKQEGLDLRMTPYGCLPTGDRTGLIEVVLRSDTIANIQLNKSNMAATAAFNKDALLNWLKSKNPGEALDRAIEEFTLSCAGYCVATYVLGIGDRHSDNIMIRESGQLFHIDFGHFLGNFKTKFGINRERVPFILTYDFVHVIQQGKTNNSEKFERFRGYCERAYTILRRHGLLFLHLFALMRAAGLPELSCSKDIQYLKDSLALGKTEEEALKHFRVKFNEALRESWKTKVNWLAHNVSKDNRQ
Sequence (P27986 whole entry partner): as the sequence (P27986 whole entry partner) above
Assay: PI 3-Kinase (human) HTRF assay, PI3K δ
Details: not given

Row | IC50 [µM] | Structure (SMILES)
29 | > 10 | C[C@H]1CN(c2cnc3ccc(-c4ccc5oc(N)nc5c4)cc3n2)CCN1 [Compound 396]

Same assay, conditions: read-out: PI3K δ IC50

Row | Structure (SMILES) | IC50 [µM]
30 | CC(C)(N)C(=O)N1CCN(c2cnc3ccc(-c4ccc5oc(N)nc5c4)nc3n2)CC1 [Compound 591] | < 10
31 | Nc1nc2cc(-c3ccc4ncc(N5CC(N6CCOCC6)C5)cc4n3)ccc2o1 [Compound 604] | < 10
32 | Nc1nc2cc(-c3ccc4ncc(C(=O)N5CC[C@H](O)C5)n4c3)ccc2o1 [Compound 264] | < 10
33 | Nc1nc2cc(-c3ccc4ncc(C(=O)N5CC[C@@H](O)C5)n4c3)ccc2o1 [Compound 265] | < 10
34 | Nc1nc2cc(-c3ccc4ncc(N5CC(N6CCOCC6)C5)nc4n3)ccc2o1 [Compound 556] | < 10
35 | Nc1nc2cc(-c3ccc4ncc(N5CC(N6CCN(C7CC7)CC6)C5)nc4n3)ccc2o1 [Compound 620] | < 10
36 | C[C@@H](N)C(=O)N1CCN(c2cnc3ccc(-c4ccc5oc(N)nc5c4)nc3n2)CC1 [Compound 582] | < 10
37 | Nc1nc2cc(-c3ccc4ncc(N5CC(N6CC[C@H](O)C6)C5)nc4c3)ccc2o1 [Compound 322] | < 10
38 | CN1CCN([C@H]2CCN(c3cnc4ccc(-c5ccc6oc(N)nc6c5)cc4n3)C2)CC1 [Compound 381] | < 10
39 | CN1CCN(c2cnc3ccc(-c4ccc5oc(N)nc5c4)nc3n2)CC1 [Compound 555] | < 10
40 | C[C@@H]1CN(c2cnc3ccc(-c4ccc5oc(N)nc5c4)cc3n2)CCN1 [Compound 179] | < 10
41 | C[C@H]1CN(c2cnc3ccc(-c4ccc5oc(N)nc5c4)nc3c2)CCN1 [Compound 598] | < 10

Same assay, conditions: read-out: PI3K δ IC50; Table 4

Row | IC50 [µM] | Structure (SMILES)
42 | < 10 | C[C@@H]1CN(c2cnc3ccc(-c4ccc5oc(N)nc5c4)nc3n2)CCN1 [Compound 578]
43 | < 10 | C[C@@H]1COCCN1c1cnc2ccc(-c3ccc4oc(N)nc4c3)nc2n1 [Compound 565]
44 | < 10 | C[C@H]1COCCN1C1CN(c2cnc3ccc(-c4ccc5oc(N)nc5c4)nc3n2)C1 [Compound 612]
45 | < 10 | CC(C)N1CCN(c2cnc3ccc(-c4ccc5oc(N)nc5c4)nc3n2)CC1 [Compound 583]
46 | < 10 | CCOC(=O)N1CC=C(c2cnc3ccc(-c4ccc5oc(N)nc5c4)nc3n2)CC1 [Compound 560]
47 | < 10 | C[C@H]1CN(C2CN(c3cnc4ccc(-c5ccc6oc(N)nc6c5)nc4n3)C2)CCN1 [Compound 561]
48 | < 10 | CN1CCN(c2cnc3ccc(-c4ccc5oc(N)nc5c4)nc3c2)CC1 [Compound 575]
49 | < 10 | C[C@H]1CN(c2cnc3ccc(-c4ccc5oc(N)nc5c4)nc3n2)CCN1 [Compound 552]
50 | < 10 | Nc1nc2cc(-c3ccc4ncc(N5CC(N6CCN(CC7CC7)CC6)C5)nc4n3)ccc2o1 [Compound 586]
51 | < 10 | CCN(CC)c1cnc2ccc(-c3ccc4oc(N)nc4c3)nc2n1 [Compound 577]
52 | < 10 | C[C@@H]1CN(C2CN(c3cnc4ccc(-c5ccc6oc(N)nc6c5)nc4n3)C2)CCN1 [Compound 563]
53 | < 10 | Nc1nc2cc(-c3ccc4ncc(N5CCC(O)CC5)cc4n3)ccc2o1 [Compound 613]
54 | < 10 | CS(=O)(=O)N1CCN(C2CN(c3cnc4ccc(-c5ccc6oc(N)nc6c5)nc4n3)C2)CC1 [Compound 559]
55 | < 10 | Nc1nc2cc(-c3ccc4ncc(N5CC(N6CCN(CCO)CC6)C5)nc4n3)ccc2o1 [Compound 597]
56 | < 10 | Nc1nc2cc(-c3ccc4ncc(N5CC(N6CCN(C7CC7)CC6)C5)cc4n3)ccc2o1 [Compound 621]
57 | < 10 | C[C@H]1CN(C2CN(c3cnc4ccc(-c5ccc6oc(N)nc6c5)nc4n3)C2)CCN1C [Compound 572]
58 | < 10 | NCC(=O)N1CCN(c2cnc3ccc(-c4ccc5oc(N)nc5c4)nc3n2)CC1 [Compound 584]
59 | < 10 | CCN1CCN(C2CN(c3cnc4ccc(-c5ccc6oc(N)nc6c5)nc4n3)C2)CC1 [Compound 627]
60 | < 10 | Cc1nccn1C1CN(c2cnc3ccc(-c4ccc5oc(N)nc5c4)nc3n2)C1 [Compound 601]
61 | < 10 | Nc1nc2cc(-c3ccc4ncc(-c5cccnc5)cc4n3)ccc2o1 [Compound 567]
62 | < 10 | C[C@@H]1CN(C2CN(c3cnc4ccc(-c5ccc6oc(N)nc6c5)nc4n3)C2)CCN1C [Compound 576]

Same assay, conditions: read-out: PI3K δ IC50; in vitro

Row | IC50 [µM] | Structure (SMILES)
63 | < 10 | Cc1ncc(-c2ccc3ncc(C(=O)N4CCOCC4)n3c2)c2cn[nH]c12 [Compound 530]

Biological target: PI3K γ (Homo sapiens, UniProt P48736)
Sequence (P48736 whole entry): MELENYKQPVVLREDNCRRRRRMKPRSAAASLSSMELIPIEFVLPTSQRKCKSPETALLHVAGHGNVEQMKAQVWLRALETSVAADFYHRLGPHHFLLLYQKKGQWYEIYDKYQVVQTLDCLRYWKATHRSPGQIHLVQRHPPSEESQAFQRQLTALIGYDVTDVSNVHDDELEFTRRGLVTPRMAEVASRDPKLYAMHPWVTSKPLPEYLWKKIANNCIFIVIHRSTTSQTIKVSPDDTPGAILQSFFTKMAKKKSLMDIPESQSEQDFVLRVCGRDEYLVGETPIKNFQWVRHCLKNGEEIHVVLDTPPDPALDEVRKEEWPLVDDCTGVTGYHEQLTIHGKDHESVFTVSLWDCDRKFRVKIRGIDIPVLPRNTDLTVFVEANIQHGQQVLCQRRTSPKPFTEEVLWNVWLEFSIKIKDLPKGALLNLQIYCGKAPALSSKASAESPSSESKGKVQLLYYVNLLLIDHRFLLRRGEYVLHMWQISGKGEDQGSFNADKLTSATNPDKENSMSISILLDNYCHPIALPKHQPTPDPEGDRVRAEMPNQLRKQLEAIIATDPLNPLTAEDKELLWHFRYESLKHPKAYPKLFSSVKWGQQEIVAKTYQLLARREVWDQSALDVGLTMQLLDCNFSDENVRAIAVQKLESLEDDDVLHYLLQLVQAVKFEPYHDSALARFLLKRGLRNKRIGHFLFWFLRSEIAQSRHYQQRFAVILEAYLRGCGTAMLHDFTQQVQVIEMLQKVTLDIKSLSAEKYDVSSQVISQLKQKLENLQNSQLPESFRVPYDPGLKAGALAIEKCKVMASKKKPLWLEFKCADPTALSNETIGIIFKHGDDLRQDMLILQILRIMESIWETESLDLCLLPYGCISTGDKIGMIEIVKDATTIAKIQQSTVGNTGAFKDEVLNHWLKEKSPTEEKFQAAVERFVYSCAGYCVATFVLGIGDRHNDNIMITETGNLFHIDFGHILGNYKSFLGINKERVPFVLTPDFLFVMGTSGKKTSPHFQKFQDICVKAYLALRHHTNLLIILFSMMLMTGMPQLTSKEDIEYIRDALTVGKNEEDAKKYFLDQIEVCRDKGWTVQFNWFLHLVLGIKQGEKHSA
Assay: PI 3-Kinase (human) HTRF assay, PI3K γ
Details: not given

Row | IC50 [µM] | Structure (SMILES)
64 | < 10 | C[C@H]1CN(c2cnc3ccc(-c4ccc5oc(N)nc5c4)cc3n2)CCN1 [Compound 396]

Same assay, conditions: read-out: PI3K γ IC50

Row | IC50 [µM] | Structure (SMILES)
65 | < 0.1 | CN1CCC(Oc2ncnc3ccc(-c4ccc5oc(N)nc5c4)cc23)CC1 [Compound 34]
66 | < 10 | CC(N)C(=O)N1CCN(c2cnc3ccc(-c4ccc5oc(N)nc5c4)cc3n2)CC1 (centres unmarked) [Compound 134]
67 | < 10 | NC(=O)[C@H]1CCCN1C(=O)c1cnc2ccc(-c3ccc4oc(N)nc4c3)cn12 [Compound 260]

Same assay, conditions: read-out: PI3K γ IC50; Table 4

Row | IC50 [µM] | Structure (SMILES)
68 | < 10 | CCN1CCN(C2CN(c3cnc4ccc(-c5ccc6oc(N)nc6c5)nc4c3)C2)CC1 [Compound 626]
69 | < 10 | C[C@H]1COCCN1C1CN(c2cnc3ccc(-c4ccc5oc(N)nc5c4)nc3n2)C1 [Compound 612]
70 | < 10 | C[C@H]1CN(C2CN(c3cnc4ccc(-c5ccc6oc(N)nc6c5)nc4n3)C2)CCN1 [Compound 561]
71 | < 10 | C[C@H]1CN(c2cnc3ccc(-c4ccc5oc(N)nc5c4)nc3n2)CCN1 [Compound 552]
72 | < 10 | Nc1nc2cc(-c3ccc4ncc(N5CC(N6CCN(CC7CC7)CC6)C5)nc4n3)ccc2o1 [Compound 586]
73 | < 10 | C[C@H]1COCCN1C1CN(c2cnc3ccc(-c4ccc5oc(N)nc5c4)nc3c2)C1 [Compound 619]
74 | < 10 | Nc1nc2cc(-c3ccc4ncc(N5CC(N6CCN(CCO)CC6)C5)nc4n3)ccc2o1 [Compound 597]
75 | < 10 | Nc1nc2cc(-c3ccc4ncc(N5CC(N6CCN(CC7CC7)CC6)C5)cc4n3)ccc2o1 [Compound 611]
76 | < 10 | CCN1CCN(C2CN(c3cnc4ccc(-c5ccc6oc(N)nc6c5)nc4n3)C2)CC1 [Compound 627]
77 | < 10 | Cc1nccn1C1CN(c2cnc3ccc(-c4ccc5oc(N)nc5c4)nc3n2)C1 [Compound 601]
78 | < 10 | C[C@@H]1CN(C2CN(c3cnc4ccc(-c5ccc6oc(N)nc6c5)nc4n3)C2)CCN1C [Compound 576]
79 | < 10 | C[C@H]1CN(C2CN(c3cnc4ccc(-c5ccc6oc(N)nc6c5)nc4c3)C2)CCN1 [Compound 605]

Row | Structure (SMILES) | IC50 [µM]
80 | CC(C)(N)C(=O)N1CCN(c2cnc3ccc(-c4ccc5oc(N)nc5c4)nc3n2)CC1 [Compound 591] | < 10
81 | Nc1nc2cc(-c3ccc4ncc(N5CC(N6CCOCC6)C5)nc4n3)ccc2o1 [Compound 556] | < 10
82 | Nc1nc2cc(-c3ccc4ncc(N5CC(N6CCN(C7CC7)CC6)C5)nc4n3)ccc2o1 [Compound 620] | < 10
83 | CN1CCN(c2cnc3ccc(-c4ccc5oc(N)nc5c4)nc3n2)CC1 [Compound 555] | < 10
